# Results published in ChEMBL document CHEMBL1201862, “PubChem BioAssay data set” (2004).
#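 The compound was tested at five concentrations on cells cultured in 96-well plates, with a 48-hour exposure period. The concentration for 50% growth inhibition is given as GI50.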 Calls of active or inactive are those of the source. Cut-off read from the data, not from the text of the source: active = GI50 up to about 1.1 µM and inactive = higher.
# Experiments:
# Assay in all cases: NCI tumour cell line growth inhibition, 48 h
# [1] = test system: M14
# [2] = test system: SF-295
# [3] = test system: UO-31
# [4] = test system: LOX IMVI
# [5] = test system: NCI/ADR-RES
# [6] = test system: A498
# [7] = test system: CCRF-CEM
# [8] = test system: HOP-62
# [9] = test system: RXF 393
# [10] = test system: HT-29
# [11] = test system: SK-MEL-2
# [12] = test system: Hs-578T
# [13] = test system: SW-620
# [14] = test system: MDA-N
# [15] = test system: RPMI-8226
# [16] = test system: EKVX
# [17] = test system: ACHN
# [18] = test system: CAKI-1
# [19] = test system: HCC 2998
# [20] = test system: NCI-H460
# [21] = test system: OVCAR-4
# [22] = test system: SF-539
# [23] = test system: OVCAR-3
# [24] = test system: OVCAR-8
# [25] = test system: U-251
# [26] = test system: MDA-MB-231
# [27] = test system: MOLT-4
# [28] = test system: DU-145
# [29] = test system: NCI-H23
# [30] = test system: SN12C
# [31] = test system: A549
# [32] = test system: SNB-19
# [33] = test system: SK-OV-3
# [34] = test system: NCI-H522
# [35] = test system: Malme-3M
# [36] = test system: MDA-MB-435
# [37] = test system: SK-MEL-5
# [38] = test system: UACC-257
# [39] = test system: HCT-15
# [40] = test system: PC-3
# [41] = test system: UACC-62
# [42] = test system: BT-549
# [43] = test system: HL-60
# [44] = test system: SK-MEL-28
# [45] = test system: HCT-116
# [46] = test system: TK-10
# [47] = test system: IGROV-1
# [48] = test system: MCF7
# [49] = test system: SNB-75
# [50] = test system: HOP-92
# [51] = test system: OVCAR-5
# [52] = test system: SF-268
# [53] = test system: KM12
# [54] = test system: COLO 205
# [55] = test system: 786-0
# [56] = test system: T47D
# [57] = test system: K562
# [58] = test system: NCI-H226
compound,measurement,setting,value
OCCNc1ncnc2c1ncn2C1OC(CO)C(O)C1O (stereo not drawn),GI50,[1],> 100 µM (inactive)
same,GI50,[2],> 100 µM (inactive)
same,GI50,[3],57.4 µM (inactive)
same,GI50,[4],40.4 µM (inactive)
same,GI50,[5],50.6 µM (inactive)
same,GI50,[6],57.7 µM (inactive)
same,GI50,[7],30.3 µM (inactive)
same,GI50,[8],> 100 µM (inactive)
same,GI50,[9],> 100 µM (inactive)
same,GI50,[10],> 100 µM (inactive)
same,GI50,[11],> 100 µM (inactive)
same,GI50,[12],48 µM (inactive)
same,GI50,[13],> 100 µM (inactive)
same,GI50,[14],> 100 µM (inactive)
same,GI50,[15],85.7 µM (inactive)
same,GI50,[16],> 100 µM (inactive)
same,GI50,[17],71.3 µM (inactive)
same,GI50,[18],> 100 µM (inactive)
same,GI50,[19],64.9 µM (inactive)
same,GI50,[20],87.9 µM (inactive)
same,GI50,[21],> 100 µM (inactive)
same,GI50,[22],> 100 µM (inactive)
same,GI50,[23],52.1 µM (inactive)
same,GI50,[24],35 µM (inactive)
same,GI50,[25],> 100 µM (inactive)
same,GI50,[26],25.5 µM (inactive)
same,GI50,[27],0.224 µM (active)
same,GI50,[28],19.3 µM (inactive)
same,GI50,[29],> 100 µM (inactive)
same,GI50,[30],80.5 µM (inactive)
same,GI50,[31],> 100 µM (inactive)
same,GI50,[32],> 100 µM (inactive)
same,GI50,[33],> 100 µM (inactive)
same,GI50,[34],47.3 µM (inactive)
same,GI50,[35],> 100 µM (inactive)
same,GI50,[36],> 100 µM (inactive)
same,GI50,[37],> 100 µM (inactive)
same,GI50,[38],> 100 µM (inactive)
same,GI50,[39],42.5 µM
same,GI50,[40],47.4 µM (inactive)
same,GI50,[41],> 100 µM (inactive)
same,GI50,[42],> 100 µM (inactive)
same,GI50,[43],33.1 µM (inactive)
same,GI50,[44],> 100 µM (inactive)
same,GI50,[45],70.5 µM (inactive)
same,GI50,[46],71.3 µM (inactive)
same,GI50,[47],> 100 µM (inactive)
same,GI50,[48],39.4 µM (inactive)
same,GI50,[49],> 100 µM (inactive)
same,GI50,[50],51.4 µM (inactive)
same,GI50,[51],> 100 µM (inactive)
same,GI50,[52],91.6 µM (inactive)
same,GI50,[53],> 100 µM (inactive)
same,GI50,[54],> 100 µM (inactive)
same,GI50,[55],> 100 µM (inactive)
same,GI50,[56],> 100 µM (inactive)
O=[N+]([O-])c1ccccc1S(=O)(=O)c1cc(O)cc2c1NCCC2,GI50,[1],17 µM (inactive)
same,GI50,[2],25.3 µM (inactive)
same,GI50,[57],2.68 µM (inactive)
same,GI50,[3],15.5 µM (inactive)
same,GI50,[4],14.2 µM (inactive)
same,GI50,[5],21.4 µM (inactive)
same,GI50,[6],13.9 µM (inactive)
same,GI50,[7],2.15 µM (inactive)
same,GI50,[8],21 µM (inactive)
same,GI50,[9],16.4 µM (inactive)
same,GI50,[10],13.3 µM (inactive)
same,GI50,[11],23.7 µM (inactive)
same,GI50,[12],27.4 µM (inactive)
same,GI50,[13],8.41 µM (inactive)
same,GI50,[14],17.8 µM (inactive)
same,GI50,[16],16.7 µM (inactive)
same,GI50,[17],14.2 µM (inactive)
same,GI50,[18],35.2 µM (inactive)
same,GI50,[19],25.5 µM (inactive)
same,GI50,[20],23.4 µM (inactive)
same,GI50,[21],15.3 µM (inactive)
same,GI50,[22],19.1 µM (inactive)
same,GI50,[23],7.55 µM (inactive)
same,GI50,[24],11.8 µM (inactive)
same,GI50,[25],20.2 µM (inactive)
same,GI50,[26],18.2 µM (inactive)
same,GI50,[27],4.23 µM (inactive)
same,GI50,[28],20.7 µM (inactive)
same,GI50,[29],19.9 µM (inactive)
same,GI50,[30],21.1 µM (inactive)
same,GI50,[31],29.8 µM (inactive)
same,GI50,[32],28.5 µM (inactive)
same,GI50,[33],17.9 µM (inactive)
same,GI50,[34],7.5 µM (inactive)
same,GI50,[35],17.4 µM (inactive)
same,GI50,[36],18.8 µM (inactive)
same,GI50,[37],13.9 µM (inactive)
same,GI50,[38],13.5 µM (inactive)
same,GI50,[39],19.6 µM
same,GI50,[40],14.7 µM (inactive)
same,GI50,[41],15.2 µM (inactive)
same,GI50,[42],13.2 µM (inactive)
same,GI50,[58],28.1 µM (inactive)
same,GI50,[43],3.47 µM (inactive)
same,GI50,[44],18.7 µM (inactive)
same,GI50,[45],5.78 µM (inactive)
same,GI50,[46],21.4 µM (inactive)
same,GI50,[47],17.1 µM (inactive)
same,GI50,[48],7.45 µM (inactive)
same,GI50,[49],14.5 µM (inactive)
same,GI50,[50],0.612 µM (active)
same,GI50,[51],23 µM (inactive)
same,GI50,[52],20.7 µM (inactive)
same,GI50,[53],18.7 µM (inactive)
same,GI50,[54],17.1 µM (inactive)
same,GI50,[55],12.1 µM (inactive)
same,GI50,[56],6.35 µM (inactive)
